Some test systems named below: HCT-15 colon; OVCAR-8 ovarian; ACHN renal; DU-145 prostate; MOLT-4 leukemia; SK-MEL-28 melanoma; MCF7 breast; COLO 205 colon; OVCAR-3 ovarian; HCT-116 colon.
Common to all, as to experiment: NCI tumour cell line growth inhibition, 48 h

The values that follow come from PubChem BioAssay (NCI).

Values joined by “and” are separate entries in the source; they are usually repeats but may differ in a detail not shown here. Equal values may be shown once.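 Protocol summary: plate cells (96-well), add compound at 5 concentrations, incubate 48 h, interpolate endpoints linearly. Abbreviation: GI50, concentration required for 50% inhibition of growth. TGI: concentration producing complete growth inhibition.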

Take `CCCC(=O)NC(Nc1ccc(S(=O)(=O)Nc2cc(C)on2)cc1)(C(=O)OCC)C(F)(F)F` (stereo not drawn): the TGI in the test with HCT-15 colon, with OVCAR-8 ovarian, with ACHN renal, in the test with DU-145 prostate, in the test on MOLT-4 leukemia and in the test on SK-MEL-28 melanoma was over 100 µM in each case. Further, the TGI in the test with MCF7 breast, with COLO 205 colon, in the test on OVCAR-3 ovarian and in the test with HCT-116 colon was over 100 µM in each case.

Consider `C[N+](C)(C)c1ccc(C(N)C(=O)O)cc1` (stereo not drawn), for which the TGI with HCT-15 colon, in the test on OVCAR-8 ovarian, with ACHN renal, in the test on DU-145 prostate, with SK-MEL-28 melanoma and with MCF7 breast was over 100 µM throughout. Also, the TGI in the test with COLO 205 colon, in the test with OVCAR-3 ovarian and in the test on HCT-116 colon was over 100 µM each time.

As for `NCCCN(CCCN(C(=O)Nc1ccccc1)c1ccccc1)C(=O)Nc1ccccc1`, the TGI in the test with HCT-15 colon is over 100 µM; in the test on OVCAR-8 ovarian it was over 100 µM; in the test with ACHN renal it was over 100 µM; in the test on DU-145 prostate, over 100 µM; in the test on MOLT-4 leukemia, over 100 µM; with SK-MEL-28 melanoma, 34.1 µM. Further, the TGI in the test on MCF7 breast, with COLO 205 colon and in the test on HCT-116 colon was over 100 µM in each case.

For `COc1ccc(N2C(=O)CC(=O)N(C(=O)COc3ccc(OCC(=O)N4C(=O)CC(=O)N(c5ccc(OC)cc5)C4=S)cc3)C2=S)cc1`, the TGI with HCT-15 colon, in the test with ACHN renal, in the test with DU-145 prostate, in the test on MOLT-4 leukemia, in the test with SK-MEL-28 melanoma and with MCF7 breast was over 100 µM throughout. In addition, the TGI in the test with COLO 205 colon stood at 39.8 µM; with HCT-116 colon, 39.5 µM.

On to `[Cl][Sn]([c]1ccccc1)([c]1ccccc1)[c]1ccccc1`, for which the GI50 with ACHN renal is 0.213 µM and 0.034 µM and 0.0215 µM; with DU-145 prostate it was 0.21 µM; in the test with SK-MEL-28 melanoma, 0.196 µM and 0.0263 µM and 0.0229 µM. For the same compound, the TGI with DU-145 prostate was 0.428 µM; with SK-MEL-28 melanoma, 0.414 µM and 0.146 µM and 0.0808 µM; in the test on OVCAR-3 ovarian it was 0.362 µM and 0.0422 µM and 0.0566 µM.

Turning to `Cc1ccc(S(=O)(=O)n2c3ccc(Br)cc3c3nc4ccccc4nc32)cc1`, the TGI in the test with HCT-15 colon, in the test with OVCAR-8 ovarian, in the test on ACHN renal, in the test with DU-145 prostate, in the test on MOLT-4 leukemia and in the test on SK-MEL-28 melanoma was over 100 µM throughout. The TGI with COLO 205 colon, with OVCAR-3 ovarian and in the test on HCT-116 colon was over 100 µM in each case.

Turning to `CO/N=C1\CC(NC(=O)CNC(=O)OC(C)(C)C)c2ccsc21` (stereo not drawn), the TGI with HCT-15 colon, with OVCAR-8 ovarian, in the test with DU-145 prostate, in the test on MOLT-4 leukemia, in the test on SK-MEL-28 melanoma and in the test on MCF7 breast was over 100 µM each time. Besides, the TGI in the test with COLO 205 colon, in the test with OVCAR-3 ovarian and with HCT-116 colon was over 100 µM throughout.

Take `CCOc1ccc(N/C(=C(/C(Cl)=C(/Cl)N(CC)CC)[N+](=O)[O-])n2nnc3ccccc32)cc1`: the TGI with HCT-15 colon is 38.4 µM; in the test on OVCAR-8 ovarian it was 32.7 µM; in the test with ACHN renal, 47.9 µM; in the test with MOLT-4 leukemia it was over 100 µM; in the test on SK-MEL-28 melanoma, 41.4 µM; in the test on MCF7 breast it was over 100 µM. Further, the TGI with COLO 205 colon stood at 37.2 µM; with OVCAR-3 ovarian it was 24.3 µM; with HCT-116 colon, 30.4 µM.

On to `COc1cc2ccc(=O)oc2cc1O`, for which the TGI in the test on HCT-15 colon is over 625 µM; in the test on OVCAR-8 ovarian, 424 µM; in the test with MOLT-4 leukemia, 223 µM; in the test with SK-MEL-28 melanoma, over 625 µM; in the test with MCF7 breast, 476 µM; in the test on COLO 205 colon, over 625 µM. Also, the values for the TGI in the test with OVCAR-3 ovarian and in the test on HCT-116 colon were 330 µM and over 625 µM, respectively.

`NC(=O)c1cccc([N+](=O)[O-])c1`: the TGI in the test with HCT-15 colon, in the test with OVCAR-8 ovarian, in the test on MOLT-4 leukemia, in the test on SK-MEL-28 melanoma, with COLO 205 colon and in the test on OVCAR-3 ovarian was over 100 µM in each case.

For `COC(=O)c1cc(=O)[nH]c(=O)[nH]1`, the TGI in the test with HCT-15 colon, in the test on OVCAR-8 ovarian, with ACHN renal, in the test with DU-145 prostate, with MOLT-4 leukemia and with SK-MEL-28 melanoma was over 100 µM throughout. Also, the TGI with OVCAR-3 ovarian and in the test with HCT-116 colon was over 100 µM in each case.

As to `CC(=O)OCC1OC(SC2=N/C(=C\c3ccc(Br)s3)C(=O)N2CN2CCOCC2)C(OC(C)=O)C(OC(C)=O)C1OC(C)=O` (stereo not drawn), the TGI in the test on HCT-15 colon stood at 49.1 µM; in the test with OVCAR-8 ovarian, 37 µM; in the test with ACHN renal it was 46.2 µM; in the test with DU-145 prostate it was 30.6 µM; in the test on MOLT-4 leukemia, 52.8 µM; in the test with SK-MEL-28 melanoma it was 32.9 µM. Also, the TGI was 33.8 µM in the test with MCF7 breast, 37.6 µM in the test on COLO 205 colon and 28.3 µM in the test on HCT-116 colon.

As to `CC(C)=NN/C(=N\S(=O)(=O)c1ccc(Oc2cccc(Cl)c2C#N)cc1)Nc1ccc(Cl)cc1`, the TGI in the test on HCT-15 colon, with OVCAR-8 ovarian, with DU-145 prostate, with MOLT-4 leukemia, in the test on SK-MEL-28 melanoma and in the test on MCF7 breast was over 100 µM throughout. Also, the TGI in the test with COLO 205 colon, with OVCAR-3 ovarian and with HCT-116 colon was over 100 µM in each case.

In the case of `Nc1ccc(S(=O)(=O)c2ccc(NCN3C(=O)NC(=O)C(=O)C3=O)cc2)cc1`, the TGI with HCT-15 colon, with OVCAR-8 ovarian, in the test with ACHN renal, in the test with MOLT-4 leukemia, in the test on SK-MEL-28 melanoma and with OVCAR-3 ovarian was over 100 µM in each case. In the test on HCT-116 colon, the TGI is over 100 µM.

`COC(OC)[C@@H]1OC[C@H](n2cnc3c(N)ncnc32)[C@H]1O`: the TGI in the test on HCT-15 colon, in the test with ACHN renal, in the test with DU-145 prostate, in the test with MOLT-4 leukemia, in the test on SK-MEL-28 melanoma and in the test with COLO 205 colon was over 100 µM in each case. Also, the TGI with OVCAR-3 ovarian and with HCT-116 colon was over 100 µM throughout.

As for `C[n+]1cccc2c(=O)c3ccccc3oc21`, the TGI in the test with HCT-15 colon, with OVCAR-8 ovarian, in the test on ACHN renal, in the test with DU-145 prostate, with SK-MEL-28 melanoma and in the test on MCF7 breast was over 100 µM throughout. For the same compound, the TGI in the test on COLO 205 colon, in the test on OVCAR-3 ovarian and in the test on HCT-116 colon was over 100 µM each time.
